# Tested on: microorganisms
structure (smiles),measurement,setting,value
O=C(O)CCCCC(=O)O [Adipic acid],portion of the total mortality observed accounted for by the toxicity,,about 60%
same,toxicity (mortality) on its own,pH 4.24,45.8%
